From US20240207421A1, “NERVE TARGETING PEPTIDES AND METHODS OF USE” (ALUME BIOSCIENCES, INC., priority 2020, published 2024)

Test system: Laminin 421/521
Assay: Phage display library screening (Example 2), NEB laminin-binding peptides
Set-up: species or system human
Details: Laminin 421/521, not 211 and 411; combined unique sequence count, Python/R script analysis
Description: Phage display library screens were used to identify peptides that bind to target proteins (including specific laminin trimers) that are expressed in human nerves, as described in Table 3. These screens were also carried out to identify peptides that could bind selectively to nerves versus muscle. Such peptides could therefore be useful for systemic in-vivo labeling of nerves during fluorescence assisted surgery. Specifically, m 13 phage libraries expressing 7 or 12 random amino acid peptides, or a cyclic peptide CX7C, on the N-terminus of the minor coat protein pIII (New England Biolabs; NEB) were processed through multiple rounds of selection for binding to target proteins expressed in nerves, or to excised human nerves, nerve extracts, or muscle, as described further below.
For screening against the specified target proteins in Table 1, including LN211, LN411, LN421, and LN521, the phage library was processed by up to 4 binding and wash cycles. For selection, phage libraries were incubated for up to 24 hours at 4° C. in 96 well plates that had been coated with one of the target proteins. Plates were then washed with PBS and phage were eluted using 0.2M glycine pH 2.0. Phage supernatants where then neutralized with Tris pH 9.0 prior to plating on TGI bacteria and LB agar plates. Colonies were counted to determine titer followed by DNA preparation of pools of phage and NextGen sequencing. After rounds of selection, phage were pooled and amplified for iterative selection. Phage that were bound at each round were sequenced. NextGen sequencing of pools after 2, 3 and 4 rounds of selection was used to isolate candidate sequences that were analyzed further to identify those that specifically bound each unique target protein.
For all NEB sequence datasets, a python script was used to translate, trim, and filter the peptide sequences (see details above). A python script was used to group peptides from different assays according to laminin complex binding (laminin complex 211, 411, 421, or 521) and combine the unique sequence counts for each peptide. An R script was written to merge the peptide sequences from different data files and determine peptides that specifically bind one laminin complex and not the others, or that bind both laminin 421 and 521 but not 211 and 411.

| Substance | Count |
| --- | --- |
| GHRTLVTSERYL (Laminin 421/521-binding peptide) | 38 |
| GGWQSLWDKPEH (Laminin 421/521-binding peptide) | 31 |
| MTNSGAK (Laminin 421/521-binding peptide) | 35 |
| LGSSRSPSSFLG (Laminin 421/521-binding peptide) | 29 |
| CSLANPATC (Laminin 421/521-binding peptide) | 52 |
| ASHSRPLMNYAP (Laminin 421/521-binding peptide) | 49 |
| GYRSFIHENWSI (Laminin 421/521-binding peptide) | 68 |
| GINLRALDLHAN (Laminin 421/521-binding peptide) | 27 |
| LLAGPFR (Laminin 421/521-binding peptide) | 44 |
| CLHNGQRSC (Laminin 421/521-binding peptide) | 37 |
| EYVKFSHSPRTY (Laminin 421/521-binding peptide) | 31 |
| SVESNSKLTMPR (Laminin 421/521-binding peptide) | 29 |
| NNNAAMQNHGVR (Laminin 421/521-binding peptide) | 51 |
| QTLQTRH (Laminin 421/521-binding peptide) | 44 |
| WAFKAPQ (Laminin 421/521-binding peptide) | 61 |
| KASIAYD (Laminin 421/521-binding peptide) | 30 |
| GRTIHSM (Laminin 421/521-binding peptide) | 95 |
| CGLATNKSC (Laminin 421/521-binding peptide) | 39 |
| CWSGNSRSC (Laminin 421/521-binding peptide) | 42 |
| GEPLTRFPNSDS (Laminin 421/521-binding peptide) | 52 |
| WGLKLPH (Laminin 421/521-binding peptide) | 117 |
| SNPKHVSSLGQM (Laminin 421/521-binding peptide) | 40 |
| ALGGEPRKAYQR (Laminin 421/521-binding peptide) | 45 |
| EDRMMTYRYTST (Laminin 421/521-binding peptide) | 29 |
| DRLTPITWDWSR (Laminin 421/521-binding peptide) | 86 |
| VPSYILR (Laminin 421/521-binding peptide) | 30 |
| CTWKHRDNC (Laminin 421/521-binding peptide) | 30 |

| Substance | Count |
| --- | --- |
| APKVTNARPTQL (Laminin 421/521-binding peptide) | 147 |
| QINWKQADKNAD (Laminin 421/521-binding peptide) | 33 |
| SLNTTWVSPMMK (Laminin 421/521-binding peptide) | 37 |
| TTNGVPGHDRSP (Laminin 421/521-binding peptide) | 46 |
| CTSSSHQTC (Laminin 421/521-binding peptide) | 28 |
| FPLKIRT (Laminin 421/521-binding peptide) | 42 |
| QGHPFIY (Laminin 421/521-binding peptide) | 40 |
| CLQKNHKFC (Laminin 421/521-binding peptide) | 27 |
| TLKAGTRANDGV (Laminin 421/521-binding peptide) | 32 |
| LPMLRHS (Laminin 421/521-binding peptide) | 32 |
| ALKIGPETTIYM (Laminin 421/521-binding peptide) | 35 |
| RNLHYPLNHPFM (Laminin 421/521-binding peptide) | 30 |
| SLAVANTRFMIR (Laminin 421/521-binding peptide) | 49 |
| CKSPIKGTC (Laminin 421/521-binding peptide) | 27 |
| AVVSQNQMSQQK (Laminin 421/521-binding peptide) | 64 |
| FNSDSRSTHQED (Laminin 421/521-binding peptide) | 29 |
| CLKDTHLNC (Laminin 421/521-binding peptide) | 40 |
| KFADTKLTSLRY (Laminin 421/521-binding peptide) | 28 |
| AQGVWWSEWFAP (Laminin 421/521-binding peptide) | 42 |
| WEEHRVEILPDV (Laminin 421/521-binding peptide) | 38 |
| TILKPAAQGFAD (Laminin 421/521-binding peptide) | 27 |
| CSSQAKRSC (Laminin 421/521-binding peptide) | 31 |
| GKPDHRLVSLWR (Laminin 421/521-binding peptide) | 309 |
| TAPRWTQ (Laminin 421/521-binding peptide) | 30 |
| VYRNGGGLPLTA (Laminin 421/521-binding peptide) | 34 |
| CGITQTTTC (Laminin 421/521-binding peptide) | 55 |
| SFRNLEKLSLWS (Laminin 421/521-binding peptide) | 50 |

| Substance | Count |
| --- | --- |
| QALRTNYSPLNS (Laminin 421/521-binding peptide) | 32 |
| GSGFRNEEHSAH (Laminin 421/521-binding peptide) | 51 |
| WGANTTGRTHGG (Laminin 421/521-binding peptide) | 40 |
| CMNKIQRDC (Laminin 421/521-binding peptide) | 131 |
| CHRTYNSTC (Laminin 421/521-binding peptide) | 46 |
| SHDVANGTSVRT (Laminin 421/521-binding peptide) | 29 |
| KPILWNRSLNAL (Laminin 421/521-binding peptide) | 52 |
| HPAWADFFTMSS (Laminin 421/521-binding peptide) | 29 |
| IDLSLRS (Laminin 421/521-binding peptide) | 29 |
| LGYGQGTPHRSN (Laminin 421/521-binding peptide) | 30 |
| AWNGNRS (Laminin 421/521-binding peptide) | 47 |
| CTKSPSNSC (Laminin 421/521-binding peptide) | 58 |
| GFADVIHRKWSS (Laminin 421/521-binding peptide) | 53 |
| DGANMENIAPAN | 27 |
| DVIHSSRGAYFE (Laminin 421/521-binding peptide) | 36 |
| AVRPLGLPDNHR (Laminin 421/521-binding peptide) | 29 |
| CQTSGHHQC (Laminin 421/521-binding peptide) | 31 |
| GHPWTEIDFMSS (Laminin 421/521-binding peptide) | 50 |
| IDQSGLQKSGMK (Laminin 421/521-binding peptide) | 29 |
| AQNLRVHAWASL (Laminin 421/521-binding peptide) | 28 |
| LDRNADSVRAVL (Laminin 421/521-binding peptide) | 46 |
| SLLSVVNTSSKS (Laminin 421/521-binding peptide) | 31 |
| CSHHKLKQC (Laminin 421/521-binding peptide) | 359 |
| HQSLAGVPWSRH (Laminin 421/521-binding peptide) | 53 |
| GDLWNVP (Laminin 421/521-binding peptide) | 51 |
